Laboratory results as given in EP0932613B1, “BLOCKING EXPRESSION OF VIRULENCE FACTORS IN S. AUREUS” (NEW YORK UNIVERSITY, priority 1996, dated 2005).
Where a SMILES comes first, the peptide text is derived from it. Bridges are numbered along the chain shown (N, C = ends).

Experiments:
RNAIII transcription [1] = test: Effect of S. lugdunensis pheromone on RNAIII transcription of various S. aureus strains (Northern blot); assay type: cell-based; conditions: 37°C for 30 minutes; strains grown to 60 Klett units for inhibition assays; Figures 4A and 4B
Procedure: The purified S. lugdunensis pheromone was then analyzed for its ability activate and inhibit RNAIII transcription of various S. aureus strains. S. aureus strains were grown to 30 Klett units (for activation assays) and to 60 Klett units (for inhibition assays). The purified S . lugdunensis pheromone was added and the mixtures were incubated at 37°C for 30 minutes. Whole cell lysates were prepared from these cultures and analyzed by Northern blot hybridization using a RN6390B RNAIII-specific probe.

RNAIII transcription [2] = test: RNAIII transcription activation/inhibition assay (Ji et al. 1995), strain RN6390B; assay type: cell-based; conditions: purified peptide; S. aureus strain RN6390B; Figure 3
Procedure: (§1) The purified activator peptide was then analyzed for its ability activate and inhibit RNAIII transcription of S. aureus strains RN6390B, RN6607 and RN8463, as described in Ji, G., et al. PNAS USA 92:12055-12059 (1995).
(§2) The purified peptide were then analyzed for their ability activate and inhibit RNAIII transcription of S. aureus strains RN6390B, RN6607 and RN8463, as described in Ji, G., et al. PNAS USA 92:12055-12059 (1995).

RNAIII transcription [3] = test: RNAIII transcription activation/inhibition assay (Ji et al. 1995), strain RN6607; assay type: cell-based; conditions: purified peptide; S. aureus strain RN6607; Figure 3
Procedure: as §1, §2

RNAIII transcription [4] = test: RNAIII transcription activation/inhibition assay (Ji et al. 1995), strain RN8463; assay type: cell-based; conditions: purified peptide; S. aureus strain RN8463; Figure 3
Procedure: as §1, §2

agr locus = conditions: PNAS 92:12055-12059 (1995); cited from earlier work

| Compound | S. aureus strains tested in which the agr response is inhibited (RNAIII transcription [1]) | effect on RNAIII transcription (RNAIII transcription [2]) | effect on RNAIII transcription (RNAIII transcription [3]) | effect on RNAIII transcription (RNAIII transcription [4]) | expression of the agr locus (agr locus) |
| --- | --- | --- | --- | --- | --- |
| CC[C@H](C)[C@H](NC(=O)[C@@H](N)CC(=O)O)C(=O)N[C@H]1CSC(=O)[C@H](Cc2ccccc2)NC(=O)[C@H](Cc2ccc(O)cc2)NC(=O)[C@H](C)NC(=O)[C@H](CC(N)=O)NC1=O [S. lugdunensis pheromone, Asp-Ile-Cys-Asn-Ala-Tyr-Phe] (H-DICNAYF; thioester 3-C) | 5 of 6 | – | – | – | – |
| CC[C@H](C)[C@@H]1NC(=O)[C@H](Cc2ccccc2)NC(=O)[C@H](CC(=O)O)NC(=O)[C@@H](NC(=O)[C@@H](NC(=O)[C@H](CO)NC(=O)[C@@H](N)Cc2ccc(O)cc2)[C@@H](C)O)CSC(=O)[C@H](CCSC)NC1=O [activator peptide, Tyr-Ser-Thr-Cys-Asp-Phe-Ile-Met] (H-YSTCDFIM; thioester 4-C) | – | activator effect | inhibitor effect | inhibitor effect | activate |
| CC(C)C[C@@H]1NC(=O)[C@H](CO)NC(=O)[C@H](CO)NC(=O)[C@@H](NC(=O)[C@H](C)NC(=O)[C@H](CC(N)=O)NC(=O)[C@@H](NC(=O)CN)C(C)C)CSC(=O)[C@H](Cc2ccccc2)NC1=O [peptide from RN6607, Gly-Val-Asn-Ala-Cys-Ser-Ser-Leu-Phe] (H-GVNACSSLF; thioester 5-C) | – | inhibitor effect | activator effect | inhibitor effect | – |
| CC[C@H](C)[C@H](NC(=O)[C@@H](N)Cc1ccc(O)cc1)C(=O)N[C@@H](CC(N)=O)C(=O)N[C@H]1CSC(=O)[C@H](CC(C)C)NC(=O)[C@H](CC(C)C)NC(=O)[C@H](Cc2ccccc2)NC(=O)[C@H](CC(=O)O)NC1=O [peptide from RN8463, Tyr-Ile-Asn-Cys-Asp-Phe-Leu-Leu] (H-YINCDFLL; thioester 4-C) | – | inhibitor effect | inhibitor effect | activator effect | – |
